Laboratory results from patent publication US12673945B2, “3-((8-((1H-pyrazol-4-yl)amino)imidazo[1,2-a]pyridin-3-yl)ethinyl)-n-phenylbenzamide derivative, method for preparing same, and pharmaceutical composition containing same as active ingredient for prevention or treatment of cancer” (DAEGU-GYEONGBUK MEDICAL INNOVATION FOUNDATION, priority 2020, dated 2026).

Experiments:
Assay in all cases: scanMAX Kinase panel (DiscoverX)
Format in all cases: binding
[1] = molecular target: T1, ABL1(M351T)-phosphorylated (Homo sapiens, UniProt P00519, M351T); conditions: read-out: % Cont @ 1 uM
T1 construct: purchased DiscoverX
Method: (§1) Among the example compounds of the present invention, the enzyme (kinase) selectivity of the selected compounds of Examples 1 and 4 was measured by requesting DiscoverX. At this time, the experiment was performed using a panel for scanMAX™ Kinase. The concentration of the drug treated to the enzyme was 1 μM in DMSO, and the percentage control (% control) was determined by the method shown in Equation 1 below. (Example Compound−Positive Control)/(Negative Control−Positive control)×100 [Equation 1]

[2] = molecular target: T2, ABL1(T315I)-phosphorylated (Homo sapiens, UniProt P00519, T315I); conditions: read-out: % Cont @ 1 uM
T2 construct: purchased DiscoverX
Method: as §1

[3] = molecular target: T3, ABL1-nonphosphorylated (Homo sapiens, UniProt P00519); conditions: read-out: % Cont @ 1 uM
T3 construct: purchased DiscoverX scanMAX Kinase panel
Method: as §1

[4] = molecular target: T4, ABL2 (Homo sapiens, UniProt P42684); conditions: read-out: % Cont @ 1 uM
T4 construct: purchased DiscoverX scanMAX Kinase panel
Method: as §1

[5] = molecular target: T5, AURKB (Homo sapiens, UniProt Q96GD4); conditions: read-out: % Cont @ 1 uM
T5 construct: purchased DiscoverX scanMAX Kinase panel
Method: as §1

[6] = molecular target: T6, BLK (Homo sapiens, UniProt P51451); conditions: read-out: % Cont @ 1 uM
T6 construct: purchased DiscoverX scanMAX Kinase panel
Method: as §1

[7] = molecular target: T7, BRAF (Homo sapiens, UniProt P15056); conditions: read-out: % Cont @ 1 uM
T7 construct: purchased DiscoverX scanMAX Kinase panel
Method: as §1

[8] = molecular target: T8, BRK (Homo sapiens, UniProt Q13882); conditions: read-out: % Cont @ 1 uM
T8 construct: purchased DiscoverX scanMAX Kinase panel
Method: as §1

[9] = molecular target: T9, CDK7 (Homo sapiens, UniProt P50613); conditions: read-out: % Cont @ 1 uM
T9 construct: purchased DiscoverX scanMAX Kinase panel
Method: as §1

[10] = molecular target: T10, DDR2 (Homo sapiens, UniProt Q16832); conditions: read-out: % Cont @ 1 uM
T10 construct: purchased DiscoverX scanMAX Kinase panel
Method: as §1

[11] = molecular target: T11, DLK (Homo sapiens, UniProt Q12852)
T11 construct: purchased DiscoverX scanMAX Kinase panel
Method: as §1

[12] = molecular target: T12, EGFR (Homo sapiens, UniProt P00533)
T12 construct: purchased DiscoverX scanMAX Kinase panel
Method: as §1

[13] = molecular target: T13, EGFR(L747-T751del, Sins) (Homo sapiens, UniProt P00533, DEL747-750/T751S)
T13 construct: purchased DiscoverX scanMAX Kinase panel
Method: as §1

[14] = molecular target: T14, EPHB2 (Homo sapiens, UniProt P29323)
T14 construct: purchased DiscoverX scanMAX Kinase panel
Method: as §1

[15] = molecular target: T15, EPHB6 (Homo sapiens, UniProt O15197); conditions: read-out: % Cont @ 1 uM
T15 construct: purchased DiscoverX scanMAX Kinase panel
Method: as §1

[16] = molecular target: T16, FGFR2 (Homo sapiens, UniProt P21802); conditions: read-out: % Cont @ 1 uM
T16 construct: purchased DiscoverX scanMAX Kinase panel
Method: as §1

[17] = molecular target: T17, FLT3(D835V) (Homo sapiens, UniProt P36888, D835V); conditions: read-out: % Cont @ 1 uM
T17 construct: purchased DiscoverX scanMAX Kinase panel
Method: as §1

[18] = molecular target: T18, FLT3(D835Y) (Homo sapiens, UniProt P36888, D835Y); conditions: read-out: % Cont @ 1 uM
T18 construct: purchased DiscoverX scanMAX Kinase panel
Method: as §1

[19] = molecular target: T19, FLT4 (Homo sapiens, UniProt P35916); conditions: read-out: % Cont @ 1 uM
T19 construct: purchased DiscoverX scanMAX Kinase panel
Method: as §1

[20] = molecular target: T20, FYN (Homo sapiens, UniProt P06241); conditions: read-out: % Cont @ 1 uM
T20 construct: purchased DiscoverX scanMAX Kinase panel
Method: as §1

[21] = molecular target: T21, HPK1 (Homo sapiens, UniProt Q92918); conditions: read-out: % Cont @ 1 uM
T21 construct: purchased DiscoverX scanMAX Kinase panel
Method: as §1

[22] = molecular target: T22, IKK-alpha (Homo sapiens, UniProt O15111); conditions: read-out: % Cont @ 1 uM
T22 construct: purchased DiscoverX scanMAX Kinase panel
Method: as §1

[23] = molecular target: T23, IKK-beta (Homo sapiens, UniProt O14920); conditions: read-out: % Cont @ 1 uM
T23 construct: purchased DiscoverX scanMAX Kinase panel
Method: as §1

[24] = molecular target: T24, LYN (Homo sapiens, UniProt P07948); conditions: read-out: % Cont @ 1 uM
T24 construct: purchased DiscoverX scanMAX Kinase panel
Method: as §1

[25] = molecular target: T25, MAP4K2 (Homo sapiens, UniProt Q12851); conditions: read-out: % Cont @ 1 uM
T25 construct: purchased DiscoverX scanMAX Kinase panel
Method: as §1

[26] = molecular target: T26, MAP4K5 (Homo sapiens, UniProt Q9Y4K4); conditions: read-out: % Cont @ 1 uM
T26 construct: purchased DiscoverX scanMAX Kinase panel
Method: as §1

[27] = molecular target: T27, MLK3 (Homo sapiens, UniProt Q16584)
T27 construct: purchased DiscoverX scanMAX Kinase panel
Method: as §1

[28] = molecular target: T28, MUSK (Homo sapiens, UniProt O15146); conditions: read-out: % Cont @ 1 uM
T28 construct: purchased DiscoverX scanMAX Kinase panel
Method: as §1

[29] = molecular target: T29, PFTAIRE2 (Homo sapiens, UniProt Q96Q40); conditions: read-out: % Cont @ 1 uM
T29 construct: purchased DiscoverX scanMAX Kinase panel
Method: as §1

[30] = molecular target: T30, RIPK2 (Homo sapiens, UniProt O43353); conditions: read-out: % Cont @ 1 uM
T30 construct: purchased DiscoverX scanMAX Kinase panel
Method: as §1

[31] = molecular target: T31, SIK (Homo sapiens, UniProt P57059)
T31 construct: purchased DiscoverX scanMAX Kinase panel
Method: as §1

[32] = molecular target: T32, SLK (Homo sapiens, UniProt Q9H2G2); conditions: read-out: % Cont @ 1 uM
T32 construct: purchased DiscoverX scanMAX Kinase panel
Method: as §1

[33] = molecular target: T33, TAOK2 (Homo sapiens, UniProt Q9UL54); conditions: read-out: % Cont @ 1 uM
T33 construct: purchased DiscoverX scanMAX Kinase panel
Method: as §1

[34] = molecular target: T34, TNIK (Homo sapiens, UniProt Q9UKE5); conditions: read-out: % Cont @ 1 uM
T34 construct: purchased DiscoverX scanMAX Kinase panel
Method: as §1

[35] = molecular target: T35, TRKB (Homo sapiens, UniProt Q16620); conditions: read-out: % Cont @ 1 uM
T35 construct: purchased DiscoverX scanMAX Kinase panel
Method: as §1

[36] = molecular target: T36, TRKC (Homo sapiens, UniProt Q16288); conditions: read-out: % Cont @ 1 uM
T36 construct: purchased DiscoverX scanMAX Kinase panel
Method: as §1

[37] = molecular target: T37, p38-alpha (Homo sapiens, UniProt Q16539)
T37 construct: purchased DiscoverX scanMAX Kinase panel
Method: as §1

[38] = molecular target: T38, p38-beta (Homo sapiens, UniProt Q15759); conditions: read-out: % Cont @ 1 uM
T38 construct: purchased DiscoverX scanMAX Kinase panel
Method: as §1

[39] = molecular target: T39, p38-delta (Homo sapiens, UniProt O15264); conditions: read-out: % Cont @ 1 uM
T39 construct: purchased DiscoverX scanMAX Kinase panel
Method: as §1

[40] = molecular target: T40, p38-gamma (Homo sapiens, UniProt P53778); conditions: read-out: % Cont @ 1 uM
T40 construct: purchased DiscoverX scanMAX Kinase panel
Method: as §1

T11 sequence (Q12852 whole entry): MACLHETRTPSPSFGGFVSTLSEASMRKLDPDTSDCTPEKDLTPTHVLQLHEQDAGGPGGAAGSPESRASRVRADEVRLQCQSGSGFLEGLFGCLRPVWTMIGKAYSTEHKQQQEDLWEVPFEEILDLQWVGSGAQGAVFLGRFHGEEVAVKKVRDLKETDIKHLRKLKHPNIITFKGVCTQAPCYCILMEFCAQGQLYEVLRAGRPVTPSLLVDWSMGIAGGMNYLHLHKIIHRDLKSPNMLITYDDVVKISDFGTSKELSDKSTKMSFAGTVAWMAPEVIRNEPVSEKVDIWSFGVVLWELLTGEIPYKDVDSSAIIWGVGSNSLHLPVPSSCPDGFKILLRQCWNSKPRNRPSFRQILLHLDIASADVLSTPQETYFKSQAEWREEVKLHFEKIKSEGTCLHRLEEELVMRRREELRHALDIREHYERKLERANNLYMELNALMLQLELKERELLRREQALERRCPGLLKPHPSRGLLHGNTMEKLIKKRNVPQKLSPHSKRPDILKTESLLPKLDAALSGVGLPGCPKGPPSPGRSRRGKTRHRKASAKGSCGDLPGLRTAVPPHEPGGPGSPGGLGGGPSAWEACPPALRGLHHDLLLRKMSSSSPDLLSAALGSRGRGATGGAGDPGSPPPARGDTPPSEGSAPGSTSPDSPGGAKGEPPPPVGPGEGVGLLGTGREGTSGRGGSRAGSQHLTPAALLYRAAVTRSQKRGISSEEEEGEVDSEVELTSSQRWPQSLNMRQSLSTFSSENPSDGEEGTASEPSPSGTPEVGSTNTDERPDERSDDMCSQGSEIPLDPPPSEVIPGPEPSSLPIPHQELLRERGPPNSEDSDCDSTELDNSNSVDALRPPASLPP
T20 sequence (P06241 whole entry): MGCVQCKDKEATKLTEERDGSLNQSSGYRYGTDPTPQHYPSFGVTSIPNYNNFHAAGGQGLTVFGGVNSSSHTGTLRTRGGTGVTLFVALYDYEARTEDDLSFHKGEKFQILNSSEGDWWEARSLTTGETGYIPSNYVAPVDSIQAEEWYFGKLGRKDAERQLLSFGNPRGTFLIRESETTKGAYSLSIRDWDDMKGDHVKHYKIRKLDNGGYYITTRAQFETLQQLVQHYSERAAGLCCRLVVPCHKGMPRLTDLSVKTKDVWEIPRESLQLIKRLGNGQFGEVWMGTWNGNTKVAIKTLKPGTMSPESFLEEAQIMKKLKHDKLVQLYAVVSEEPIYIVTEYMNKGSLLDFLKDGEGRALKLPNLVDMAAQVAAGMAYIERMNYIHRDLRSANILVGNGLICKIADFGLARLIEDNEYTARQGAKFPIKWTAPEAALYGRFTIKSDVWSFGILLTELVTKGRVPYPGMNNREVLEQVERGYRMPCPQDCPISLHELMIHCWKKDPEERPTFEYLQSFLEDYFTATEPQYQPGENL
T10 sequence (Q16832 22-855): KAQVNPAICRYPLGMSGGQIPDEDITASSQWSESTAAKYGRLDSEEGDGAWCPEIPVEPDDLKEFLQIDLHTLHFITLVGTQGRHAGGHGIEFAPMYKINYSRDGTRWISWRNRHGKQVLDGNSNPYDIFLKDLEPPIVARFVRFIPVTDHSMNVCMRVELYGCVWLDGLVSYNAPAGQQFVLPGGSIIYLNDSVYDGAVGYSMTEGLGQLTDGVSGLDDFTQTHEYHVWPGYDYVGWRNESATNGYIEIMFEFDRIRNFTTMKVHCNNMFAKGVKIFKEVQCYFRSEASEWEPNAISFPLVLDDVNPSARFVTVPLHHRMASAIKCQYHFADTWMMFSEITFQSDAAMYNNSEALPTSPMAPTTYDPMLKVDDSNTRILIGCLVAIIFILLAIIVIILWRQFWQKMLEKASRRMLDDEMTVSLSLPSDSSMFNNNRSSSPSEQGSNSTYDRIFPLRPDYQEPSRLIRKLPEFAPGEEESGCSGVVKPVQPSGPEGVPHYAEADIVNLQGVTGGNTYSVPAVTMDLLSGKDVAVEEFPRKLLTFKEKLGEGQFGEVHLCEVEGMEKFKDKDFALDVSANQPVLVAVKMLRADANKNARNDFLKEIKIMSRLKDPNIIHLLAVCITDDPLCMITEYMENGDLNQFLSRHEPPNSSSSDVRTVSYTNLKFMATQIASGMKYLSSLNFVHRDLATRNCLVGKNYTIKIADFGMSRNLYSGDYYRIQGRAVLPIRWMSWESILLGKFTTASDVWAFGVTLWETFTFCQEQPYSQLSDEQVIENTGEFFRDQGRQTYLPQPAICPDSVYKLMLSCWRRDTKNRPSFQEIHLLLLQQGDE
T27 sequence (Q16584 whole entry): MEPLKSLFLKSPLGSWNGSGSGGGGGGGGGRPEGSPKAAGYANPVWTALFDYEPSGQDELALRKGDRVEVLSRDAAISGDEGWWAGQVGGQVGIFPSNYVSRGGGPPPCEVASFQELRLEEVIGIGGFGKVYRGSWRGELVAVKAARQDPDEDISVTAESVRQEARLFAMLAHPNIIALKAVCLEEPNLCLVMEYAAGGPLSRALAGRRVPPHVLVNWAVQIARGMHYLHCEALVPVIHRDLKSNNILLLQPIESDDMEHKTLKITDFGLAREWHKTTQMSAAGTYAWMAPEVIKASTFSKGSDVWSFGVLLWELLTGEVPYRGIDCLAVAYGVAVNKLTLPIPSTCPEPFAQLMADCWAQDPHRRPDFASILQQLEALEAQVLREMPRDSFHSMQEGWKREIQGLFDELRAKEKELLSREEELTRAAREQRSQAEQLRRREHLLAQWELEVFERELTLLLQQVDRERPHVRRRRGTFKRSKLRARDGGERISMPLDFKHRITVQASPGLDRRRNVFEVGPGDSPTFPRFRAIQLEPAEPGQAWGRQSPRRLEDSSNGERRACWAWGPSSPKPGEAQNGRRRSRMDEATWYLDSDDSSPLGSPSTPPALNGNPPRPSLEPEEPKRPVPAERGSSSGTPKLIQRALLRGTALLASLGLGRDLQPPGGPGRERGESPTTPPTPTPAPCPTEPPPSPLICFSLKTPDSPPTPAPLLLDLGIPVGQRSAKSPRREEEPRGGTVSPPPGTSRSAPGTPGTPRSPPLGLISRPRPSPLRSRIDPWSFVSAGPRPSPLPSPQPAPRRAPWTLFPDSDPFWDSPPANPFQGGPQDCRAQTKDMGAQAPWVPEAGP
T29 sequence (Q96Q40 whole entry): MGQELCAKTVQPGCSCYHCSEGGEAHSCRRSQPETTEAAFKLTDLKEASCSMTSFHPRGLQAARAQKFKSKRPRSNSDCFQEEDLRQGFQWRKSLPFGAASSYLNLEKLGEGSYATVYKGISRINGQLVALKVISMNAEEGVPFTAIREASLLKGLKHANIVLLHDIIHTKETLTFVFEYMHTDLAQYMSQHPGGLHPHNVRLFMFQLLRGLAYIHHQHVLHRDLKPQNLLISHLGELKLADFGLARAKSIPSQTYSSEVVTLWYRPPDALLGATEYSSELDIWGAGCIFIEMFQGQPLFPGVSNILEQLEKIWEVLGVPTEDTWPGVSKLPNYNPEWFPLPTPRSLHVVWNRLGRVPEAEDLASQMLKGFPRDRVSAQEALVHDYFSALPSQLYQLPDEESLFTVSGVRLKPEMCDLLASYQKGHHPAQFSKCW
T8 sequence (Q13882 whole entry): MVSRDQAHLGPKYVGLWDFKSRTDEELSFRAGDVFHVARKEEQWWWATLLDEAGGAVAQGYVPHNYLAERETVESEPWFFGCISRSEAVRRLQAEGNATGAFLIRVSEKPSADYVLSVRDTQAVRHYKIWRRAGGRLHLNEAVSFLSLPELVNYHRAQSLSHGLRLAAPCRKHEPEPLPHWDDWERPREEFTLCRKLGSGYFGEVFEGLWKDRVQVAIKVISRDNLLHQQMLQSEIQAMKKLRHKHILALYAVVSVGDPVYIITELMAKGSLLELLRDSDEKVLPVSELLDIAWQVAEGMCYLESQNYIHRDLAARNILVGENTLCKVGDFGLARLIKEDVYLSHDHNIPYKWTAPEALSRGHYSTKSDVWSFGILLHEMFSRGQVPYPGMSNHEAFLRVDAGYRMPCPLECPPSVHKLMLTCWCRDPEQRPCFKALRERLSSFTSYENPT
T7 sequence (P15056 whole entry): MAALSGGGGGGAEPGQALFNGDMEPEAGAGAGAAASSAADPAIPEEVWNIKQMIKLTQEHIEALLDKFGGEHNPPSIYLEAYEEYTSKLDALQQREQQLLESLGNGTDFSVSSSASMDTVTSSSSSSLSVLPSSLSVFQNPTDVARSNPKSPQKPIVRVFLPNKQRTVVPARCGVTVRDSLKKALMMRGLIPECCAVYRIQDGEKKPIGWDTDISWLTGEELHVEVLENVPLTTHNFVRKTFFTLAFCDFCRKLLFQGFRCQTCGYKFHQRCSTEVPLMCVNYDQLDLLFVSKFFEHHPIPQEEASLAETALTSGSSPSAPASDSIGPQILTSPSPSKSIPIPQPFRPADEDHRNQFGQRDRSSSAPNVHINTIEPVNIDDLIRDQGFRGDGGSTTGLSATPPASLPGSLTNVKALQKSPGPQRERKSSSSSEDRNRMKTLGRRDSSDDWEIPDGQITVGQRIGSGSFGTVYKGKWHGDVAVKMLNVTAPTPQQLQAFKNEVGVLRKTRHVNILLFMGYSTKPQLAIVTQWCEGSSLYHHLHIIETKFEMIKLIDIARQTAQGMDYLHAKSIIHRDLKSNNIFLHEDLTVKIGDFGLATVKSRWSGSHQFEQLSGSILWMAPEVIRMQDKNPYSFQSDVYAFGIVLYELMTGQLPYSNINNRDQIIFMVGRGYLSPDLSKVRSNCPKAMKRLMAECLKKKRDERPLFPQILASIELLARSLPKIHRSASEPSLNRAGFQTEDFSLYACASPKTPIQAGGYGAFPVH

Compound | remaining binding at 1 µM [1] [%] | remaining binding at 1 µM [2] [%] | remaining binding at 1 µM [3] [%] | remaining binding at 1 µM [4] [%] | remaining binding at 1 µM [5] [%] | remaining binding at 1 µM [6] [%] | remaining binding at 1 µM [7] [%] | remaining binding at 1 µM [8] [%] | remaining binding at 1 µM [9] [%] | remaining binding at 1 µM [10] [%] | % Cont @ 1 uM [11] [%] | % Cont @ 1 uM [12] [%] | % Cont @ 1 uM [13] [%] | % Cont @ 1 uM [14] [%] | remaining binding at 1 µM [15] [%] | remaining binding at 1 µM [16] [%] | remaining binding at 1 µM [17] [%] | remaining binding at 1 µM [18] [%] | remaining binding at 1 µM [19] [%] | remaining binding at 1 µM [20] [%] | further results
Cc1cn(-c2cc(NC(=O)c3cc(C#Cc4cnc5c(Nc6cnn(C)c6)cccn45)c(C)cc3F)cc(C(C)(C)C#N)c2)cn1 [Example 1, N-(3-(2-cyanopropane-2-yl)-5-(4-methyl-1H-imidazol-1-yl)phenyl)-2-fluoro-4-methyl-5-((8-((1-methyl-1H-pyrazol-4-yl)amino)imidazo[1,2-a]pyridin-3-yl)ethynyl)benzamide] | 0.25 | 2.3 | 1.9 | 0.4 | 26 | 0.05 | 13 | 13 | 4.7 | 2 | 5.9 | 29 | 11 | 6.3 | 0 | 30 | 0.25 | 14 | 0.35 | 3 | remaining binding at 1 µM [21]: 2%; remaining binding at 1 µM [22]: 31%; percent of control binding at 1 µM [23]: 26%; percent of control binding at 1 µM [24]: 0.5%; remaining binding at 1 µM [25]: 2.5%; remaining binding at 1 µM [26]: 0.95%; % Cont @ 1 uM [27]: 10%; remaining binding at 1 µM [28]: 5%; remaining binding at 1 µM [29]: 4.3%; remaining binding at 1 µM [30]: 3%; % Cont @ 1 uM [31]: 2%; remaining binding at 1 µM [32]: 1.2%; remaining binding at 1 µM [33]: 20%; remaining binding at 1 µM [34]: 7.2%; remaining binding at 1 µM [35]: 0.6%; remaining binding at 1 µM [36]: 0.05%; % Cont @ 1 uM [37]: 0.65%; remaining binding at 1 µM [38]: 0.85%; percent of control binding at 1 µM [39]: 29%; remaining binding at 1 µM [40]: 17%
Cc1cn(-c2cc(NC(=O)c3cc(C#Cc4cnc5c(Nc6cnn(C)c6)cccn45)c(C)cc3F)cc(C(F)(F)F)c2)cn1 [Example 4, 2-fluoro-4-methyl-N-(3-(4-methyl-1H-imidazol-1-yl)-5-(trifluoromethyl)phenyl)-5-((8-((1-methyl-1H-pyrazol-4-yl)amino)imidazo[1,2-a]pyridin-3-yl)ethynyl)benzamide] | 10 | 16 | 5.6 | 2.9 | 57 | 0.4 | 34 | 78 | 71 | 6.5 | 89 | 79 | 28 | 32 | 0 | 61 | 25 | 22 | 4.4 | 32 | remaining binding at 1 µM [21]: 41%; remaining binding at 1 µM [22]: 35%; percent of control binding at 1 µM [23]: 56%; percent of control binding at 1 µM [24]: 4.7%; remaining binding at 1 µM [25]: 70%; remaining binding at 1 µM [26]: 38%; % Cont @ 1 uM [27]: 57%; remaining binding at 1 µM [28]: 46%; remaining binding at 1 µM [29]: 76%; remaining binding at 1 µM [30]: 37%; % Cont @ 1 uM [31]: 14%; remaining binding at 1 µM [32]: 34%; remaining binding at 1 µM [33]: 35%; remaining binding at 1 µM [34]: 25%; remaining binding at 1 µM [35]: 7.7%; remaining binding at 1 µM [36]: 1.4%; % Cont @ 1 uM [37]: 49%; remaining binding at 1 µM [38]: 15%; percent of control binding at 1 µM [39]: 92%; remaining binding at 1 µM [40]: 88%
